Measurements reported in patent US20260097046A1, “PLASMODIUM FALCIPARUM BLOOD STAGE INHIBITORS” (University of Georgia Research Foundation, Inc., priority 2023, published 2026).

Test: Solubility by HPLC assay
Format: physicochemical
Settings: pH 7.4, HPLC assay
Protocol: Solubility was assessed for selected compounds using an HPLC assay.

Structure (SMILES) | Solubility (μM) at pH 7.4 [μM]
Cc1ccc(N(C)C(=O)c2ncn(-c3ccc(C)cc3)n2)cc1 [APZ-2327, N-methyl-N,1-di-p-tolyl-1H-1,2,4-triazole-3-carboxamide] | 19.1
Cc1ccc(-c2cncc(C(=O)N(C)c3ccc(Cl)cc3)c2)cc1 [APZ-2160, N-(4-chlorophenyl)-N-methyl-5-(p-tolyl)nicotinamide] | 12.8
